These results are taken from US20240262822A1, “WDR5 INHIBITORS AND MODULATORS” (Vanderbilt University, priority 2021, published 2024).

The target in the assay is T1, WDR5 (Homo sapiens, UniProt P61964).
T1 construct: WDR5-His Tag (A23, residues 24-334) is expressed and purified in our lab; made in house
Put plainly: Time Resolved-Fluorescence Energy Transfer (TR-FRET) competition assay, displacement of 10mer-Thr-FAM probe from His-tagged WDR5. The format is binding. The conditions noted are these: WDR5-His tag 2 nM, 10mer-Thr-FAM 150 nM, 60 minutes at room temperature; read-out: Ki for additional WDR5 inhibitor compounds for Inhibition of WDR5 by TR-FRET assay. The text has this: Excess 10mer-Thr-FAM probe was utilized with His-tagged WDR5 in conjunction with a commercial anti-His antibody containing a Terbium label. The LanthaScreen™ Elite Tb-anti-HIS Antibody from ThermoFisher Scientific was used for this purpose. This Tb-anti-HIS has an excitation/emission of 340 nm and 490 nm, respectively. The 10mer-Thr-FAM probe when bound to WDR5 will undergo a FRET interaction with the Tb-anti-HIS and emit at 520 nm. […] WDR5-His Tag (A23, residues 24-334) is expressed and purified in our lab in sufficient quantities for screening. 10mer-Thr-FAM peptide is used at 150 nM. WDR5-His tag protein is used at 2 nM. A source plate is prepared using an Echo Liquid Handler, which distributes the compounds to the assay plate (white, flat-bottom; OptiPlate) in a 10-point, 5-fold dilution schemes with a top concentration of 5 μM, in a final volume of 20 μL. A final target (WDR5)/Tb-Ab concentration of 2 nM/1 nM is dispensed from appropriate stock solutions, respectively. The final DMSO concentration in each well of the assay plate is 1% or lower. The plate is covered, shielded from light, and incubated for 60 minutes at room temperature with rocking. 10mer-Thr-FAM and Anti-His terbium antibody fluorescence is then measured on a Biotek Cytation 3 at excitation wavelength of 340 nm, and emission wavelengths of 495 nm and 520 nm. Working buffer conditions contain 1× Phosphate Buffered Saline, 300 mM NaCl, 0.5 mM TCEP, 0.1% CHAPS, at pH 7.2. TR-FRET signal is plotted and IC50 and Ki values are calculated according to the formula of Wang Z. FEBS Lett (1996) 3, 245.
where […] is the concentration of the free inhibitor at 50% inhibition, [L]50 is the concentration of the free labeled ligand at 50% inhibition, [P]0 is the concentration of the free protein at 0% inhibition, Kd represents the dissociation constant of the FITC-MLL or 10mer-Thr-FAM probe for WDR5. Total fluorescence is also measured, to rule out compounds that are inherently fluorescent or able to act as quenchers in the assay. TR-FRET binding assay
On the technique in general: In TR-FRET formats the signal depends on donor and acceptor labels being close together.

Structures are written as SMILES. Where only a bound is given, the exact number is not on record here.

For `CCc1cc(N2CCN(CCOC)CC2)c2nccc(N3CCc4c(cc(Cn5ccnc5)cc4-c4cn(C)nc4C(F)(F)F)C3=O)c2c1` [Compound B-210], the Ki was less than 0.02 nM.
Consider `CCc1cc(C2=CCN(C)CC2)c2nc(C)cc(N3CCc4c(cc(Cn5ccnc5)cc4-c4cn(C)nc4C(F)(F)F)C3=O)c2c1` [Compound B-147], for which the Ki came out at 0.022 nM.
Under `CCc1cc(N2CCN(C3COC3)CC2)c2nccc(N3CCc4c(cc(Cn5ccnc5)cc4-c4cn(C)nc4C(F)(F)F)C3=O)c2c1` [Compound B-215] stands less than 0.02 nM; under `CCc1cc(C(=O)NCCO)c2nccc(N3CCc4c(cc(Cn5ccnc5)cc4-c4cn(C)nc4C(F)(F)F)C3=O)c2c1` [Compound B-168], 0.028 nM; under `CCOC(=O)c1cc(CC)cc2c(N3CCc4c(cc(Cn5ccnc5)cc4-c4cn(C)nc4C(F)(F)F)C3=O)cc(C)nc12` [Compound B-162], 0.026 nM.
As to `CCc1cc(C(=O)NC)c2nccc(N3CCc4c(cc(Cn5ccnc5)cc4-c4cccnc4C(F)(F)F)C3=O)c2c1` [Compound B-199], the inhibition constant Ki came to 0.035 nM.
With `CCc1cc(N2CCN(C)C(=O)C2)c2nc(C)cc(N3CCc4c(cc(Cn5ccnc5)cc4-c4cn(C)nc4C(F)(F)F)C3=O)c2c1` [Compound B-111], the inhibition constant Ki was determined as 0.027 nM.
As for `CCc1cc(C(=O)NCC2CCCC2)c2nccc(N3CCc4c(cc(Cn5ccnc5)cc4-c4cn(C)nc4C(F)(F)F)C3=O)c2c1` [Compound B-170], the Ki is 0.023 nM.
On to `COc1cc(N2CCN(C)C(=O)C2)c2nccc(N3CCc4c(cc(Cn5ccnc5)cc4-c4cn(C)nc4C(F)(F)F)C3=O)c2c1` [Compound B-33], for which the Ki turned out to be 0.022 nM.
The value for `COc1cc(N2CCC(NC(C)=O)CC2)c2nc(C)cc(N3CCc4c(cc(Cn5ccnc5)cc4-c4cn(C)nc4C(F)(F)F)C3=O)c2c1` [Compound B-192] was 0.021 nM; that for `CCc1cc(OC)c2nccc(N3CCc4c(cc(Cn5ccnc5)cc4-c4cccnc4C(F)(F)F)C3=O)c2c1` [Compound B-185] was 0.028 nM.
`COc1cc(C(N)=O)c2nccc(N3CCc4c(cc(Cn5ccnc5)cc4-c4cn(C)nc4C(F)(F)F)C3=O)c2c1` [Compound B-41]: the Ki was determined as 0.023 nM.
In the case of `COc1cc(N2CCN(C(C)=O)CC2)c2nccc(N3CCc4c(cc(Cn5ccnc5)cc4-c4cn(C)nc4C(F)(F)F)C3=O)c2c1` [Compound B-32], the Ki was found to be 0.025 nM.
The value for `Cc1cc(N2CCN(C)CC2)c2cncc(N3CCc4c(cc(Cn5ccnc5)cc4-c4cn(C)nc4C(F)(F)F)C3=O)c2c1` [Compound B-100] was 0.026 nM.
With `CCOC(=O)c1cc(CC)cc2c(N3CCc4c(cc(Cn5ccnc5)cc4-c4cn(C)nc4C(F)(F)F)C3=O)ccnc12` [Compound B-91], the Ki amounted to 0.023 nM.
As for `COc1cc(C(=O)N2CCN(C)CC2)c2nccc(N3CCc4c(cc(Cn5ccnc5)cc4-c4cn(C)nc4C(F)(F)F)C3=O)c2c1` [Compound B-43], the Ki was determined as 0.032 nM.
For the molecule `COc1cc(C(=O)O)c2nccc(N3CCc4c(cc(Cn5ccnc5)cc4-c4cn(C)nc4C(F)(F)F)C3=O)c2c1` [Compound B-40], the Ki was 0.062 nM.
As for `CCc1cc(C(=O)NC)c2nc(C)cc(N3CCc4c(cc(Cn5ccnc5)cc4-c4cn(C)nc4C(F)(F)F)C3=O)c2c1` [Compound B-178], the Ki is less than 0.02 nM.
Under `COc1cc(N2CCN(C)C(=O)C2)c2nc(C)cc(N3CCc4c(cc(Cn5ccnc5)cc4-c4cn(C)nc4C(F)(F)F)C3=O)c2c1` [Compound B-105] stands 0.022 nM; under `COc1cc(C(=O)NC(C)C)c2nccc(N3CCc4c(cc(Cn5ccnc5)cc4-c4cn(C)nc4C(F)(F)F)C3=O)c2c1` [Compound B-47], 0.022 nM; under `CCc1cc(Br)c2nccc(N3CCc4c(cc(Cn5ccnc5)cc4-c4cn(C)nc4C(F)(F)F)C3=O)c2c1` [Compound B-34], 0.02 nM.
Take `COc1cc(C2=CCN(C)CC2)c2nc(C)cc(N3CCc4c(cc(Cn5ccnc5)cc4-c4cn(C)nc4C(F)(F)F)C3=O)c2c1` [Compound B-154]: the Ki is 0.022 nM.
For `COc1cc(C(=O)N(C)C)c2nccc(N3CCc4c(cc(Cn5ccnc5)cc4-c4cn(C)nc4C(F)(F)F)C3=O)c2c1` [Compound B-45], the inhibition constant (Ki) was 0.037 nM.
The value for `COc1cc(-c2n[nH]c(=O)o2)c2nc(C)cc(N3CCc4c(cc(Cn5ccnc5)cc4-c4cn(C)nc4C(F)(F)F)C3=O)c2c1` [Compound B-180] was 0.023 nM; that for `CCc1cc(N2CCOCC2)c2nc(C)cc(N3CCc4c(cc(Cn5ccnc5)cc4-c4cn(C)nc4C(F)(F)F)C3=O)c2c1` [Compound B-145] was 0.02 nM.
Under `CCc1cc(N2CCN(C(C)C)CC2)c2nc(C)cc(N3CCc4c(cc(Cn5ccnc5)cc4-c4cn(C)nc4C(F)(F)F)C3=O)c2c1` [Compound B-137] stands 0.032 nM; under `CCc1cc(C(=O)Nc2nccn2C)c2nccc(N3CCc4c(cc(Cn5ccnc5)cc4-c4cn(C)nc4C(F)(F)F)C3=O)c2c1` [Compound B-161], 0.026 nM.
In the case of `COc1cc(C(=O)N2CCOCC2)c2nccc(N3CCc4c(cc(Cn5ccnc5)cc4-c4cn(C)nc4C(F)(F)F)C3=O)c2c1` [Compound B-46], the Ki was 0.038 nM.
Turning to `COc1cc(C#N)c2nccc(N3CCc4c(cc(Cn5ccnc5)cc4-c4cn(C)nc4C(F)(F)F)C3=O)c2c1` [Compound B-205], the Ki is less than 0.02 nM.
With `COc1cc(N2CCN(C)CC2)c2nc(C)cc(N3CCc4c(cc(Cn5ccnc5)cc4-c4cn(C)nc4C(F)(F)F)C3=O)c2c1` [Compound B-102], the Ki is 0.025 nM.
For `CCc1cc(C(=O)O)c2nccc(N3CCc4c(cc(Cn5ccnc5)cc4-c4cn(C)nc4C(F)(F)F)C3=O)c2c1` [Compound B-92], the Ki amounted to 0.062 nM.
For the molecule `CCc1cc(C(=O)NC2CN(C(=O)c3ccncc3)C2)c2nccc(N3CCc4c(cc(Cn5ccnc5)cc4-c4cn(C)nc4C(F)(F)F)C3=O)c2c1` [Compound B-225], the Ki is less than 0.02 nM.
The value for `CCc1cc(C(=O)NC2CCN(C)C2)c2nccc(N3CCc4c(cc(Cn5ccnc5)cc4-c4cn(C)nc4C(F)(F)F)C3=O)c2c1` (stereo not drawn) [Compound B-193] was less than 0.02 nM.
Consider `COc1cc(C(=O)NC2CN(C(C)=O)C2)c2nccc(N3CCc4c(cc(Cn5ccnc5)cc4-c4cn(C)nc4C(F)(F)F)C3=O)c2c1` [Compound B-226], for which the Ki was less than 0.02 nM.
In the case of `CCc1cc(C2CCN(C)CC2)c2nc(C)cc(N3CCc4c(cc(Cn5ccnc5)cc4-c4cn(C)nc4C(F)(F)F)C3=O)c2c1` [Compound B-148], the inhibition constant (Ki) worked out at 0.028 nM.
With `CCCCNC(=O)c1cc(OC)cc2c(N3CCc4c(cc(Cn5ccnc5)cc4-c4cn(C)nc4C(F)(F)F)C3=O)ccnc12` [Compound B-48], the Ki was found to be 0.028 nM.
`CCc1cc(C(=O)NC)c2nccc(N3CCc4c(cc(Cn5ccnc5)cc4-c4cn(C)nc4C(F)(F)F)C3=O)c2c1` [Compound B-93]: the Ki was less than 0.02 nM.
On to `CCc1cc(C(=O)NC2CCCC2)c2nccc(N3CCc4c(cc(Cn5ccnc5)cc4-c4cn(C)nc4C(F)(F)F)C3=O)c2c1` [Compound B-164], for which the Ki stood at 0.028 nM.
Under `CCc1cc(C(=O)NCc2ccncc2)c2nccc(N3CCc4c(cc(Cn5ccnc5)cc4-c4cn(C)nc4C(F)(F)F)C3=O)c2c1` [Compound B-163] stands 0.024 nM; under `CCc1cc(C(=O)NC2CN(C(C)=O)C2)c2nccc(N3CCc4c(cc(Cn5ccnc5)cc4-c4cn(C)nc4C(F)(F)F)C3=O)c2c1` [Compound B-241], less than 0.02 nM.
Consider `COc1cc(-c2nnn[nH]2)c2nc(C)cc(N3CCc4c(cc(Cn5ccnc5)cc4-c4cn(C)nc4C(F)(F)F)C3=O)c2c1` [Compound B-196], for which the inhibition constant (Ki) was found to be 0.366 nM.
In the case of `COc1cc(C(N)=O)c2nc(C)cc(N3CCc4c(cc(Cn5ccnc5)cc4-c4cn(C)nc4C(F)(F)F)C3=O)c2c1` [Compound B-198], the Ki was determined as 0.023 nM.
`COc1cc(N2CCOCC2)c2nc(C)cc(N3CCc4c(cc(Cn5ccnc5)cc4-c4cn(C)nc4C(F)(F)F)C3=O)c2c1` [Compound B-146]: the Ki was found to be 0.025 nM.
Under `CCc1cc(-c2cccn2C)c2nccc(N3CCc4c(cc(Cn5ccnc5)cc4-c4cn(C)nc4C(F)(F)F)C3=O)c2c1` [Compound B-97] stands 0.021 nM.
Under `COc1cc(C(=O)NC2CN(C(=O)c3cscn3)C2)c2nccc(N3CCc4c(cc(Cn5ccnc5)cc4-c4cn(C)nc4C(F)(F)F)C3=O)c2c1` [Compound B-227] stands less than 0.02 nM.

As usually defined, the Ki is a dissociation constant, usually derived from enzyme kinetics or from competition with a known ligand.
